These are literature values, as cited in patent publication US20120015026A1, “PHARMACEUTICAL COMPOSITION CONTAINING A DRUG AND SIRNA” (priority 2009, published 2012).

Where only a bound is given, the exact number is not on record here.

For data set [1] the following is noted: organic solvents such as ethanol, ethylacetate, dichloromethane.

For `C/C(=C\c1csc(C)n1)[C@@H]1C[C@@H]2O[C@]2(C)CCC[C@H](C)[C@H](O)[C@@H](C)C(=O)C(C)(C)[C@@H](O)CC(=O)O1` [EPO906, epothilone B], the solubility in water is below 0.1 µg/mL. Further, the “solubility in organic solvents” value in data set [1] was “highly soluble”.
